Tests used:
Type in all cases: in vivo, mouse
TRAMP prostate tumors = assay: TRAMP spontaneous prostate cancer model, weekly low dose oxaliplatin; conditions: for prostate tumor regression 30 days after lymphocyte transfer: TRAMP
Text: All TRAMP mice, their derivatives and s.c. Myc-Cap transplantation were in the FVB genetic background and their basic immune parameters are shown in FIG. 15a-m. For s.c. TRAMP-C2 tumors, C57BL/6 mice were used. In both s.c. tumors, 2-3×10^6 cells/mouse were transplanted. More detailed information is as follows.
C57BL/6 and FVB control mice were purchased from Charles River Laboratories and CD45.1 mice^1 were purchased from Jackson Laboratory, and all were bred at the University of California San Diego (UCSD) animal facility. C57BL/6-Tg(TRAMP)8247Ng/J (TRAMP mice)^2 were backcrossed to the FVB strain for more than 10 generations. The median survival of TRAMP-FVB mice was 23 weeks compared to 52 weeks for TRAMP-C57BL/6 mice. TRAMP mice were crossed with B cell-deficient (Jh^−/−) mice^3, CTL-deficient (Cd8a^−/−) mice^4 or Rag1^−/− mice, which lack both B and T cells^5, all in the FVB-background. OT-I mice were obtained from Taconic^6. Tgfbr2^F/F (FVB-background) mice were obtained from Dr. Hal Moses at Vanderbilt University^7. Tcrb^−/−, Cd19-Cre, Il10^−/− and CD45.1 mice were purchased from the Jackson Laboratory. IgA gene-deficient (Iga^−/−) mice^8 were obtained from Baylor College of Medicine. Pdl1/2^−/− mice were obtained from Genentech (San Francisco, Calif.). Cd19-Cre and Iga^−/− mice were backcrossed to the FVB strain for more than 10 generations. All mice were maintained in filter-topped cages on autoclaved food and water at the UCSD animal facility and all experiments were performed in accordance with UCSD and NIH guidelines and regulations.
Mouse treatment studies were “matched design control trials.” Accordingly, mice were randomly chosen and paired based on sex (male), age (FIG. 6a) and tumor size. For transplanted tumor models, tumor size was defined by the median tumor volume (e.g. 400 mm^3, for late treatments, FIG. 6a,f). For TRAMP transgenic tumor models, treatment decisions were made based on age and mice were randomly chosen including a control littermate. An identification code was assigned to each tumor-bearing mouse both in the transplanted and transgenic models, and the investigators were blinded to treatment allocation at the time of tumor volume measurement, autopsy and analysis.
Anti-PD-L1 antibody was i.v. injected at 10 mg/kg once, followed by 5 mg/kg bi-weekly. Mice were treated for three weeks for a total of 7 doses/animal.

[1] = IgA production and immune parameters in tumor-free mice; conditions: LD, tumor-free WT or Tgfbr2ΔB mice
Description: All results are means±s.e.m.
For lymphocytes isolated from spleen and lymph nodes, standard protocols using filters have been used. Lymphocytes were isolated from human blood using Ficoll-Paque PLUS (GE Healthcare Life Science) according to manufacturer's recommendations. […] Moreover, Il10 and β-actin mRNA expression were analyzed on single cell level by flow cytometry in combination with CD45, IgA and IL-10 protein staining, using FlowRNA II Assay kit (Affymetrix eBioscience) according to manufacturer's protocols^9. Cells were analyzed on a Beckman Coulter Cyan ADP flow cytometer. Data were analyzed using FlowJo software (Treestar). […]
Anti-SV40 Tag immunoglobulin ELISA was performed as previously described^33. […] After 24 hrs, the supernatants were analysed for IgA content. […]

TRAMP-C2 tumors = assay: s.c. TRAMP-C2 tumor model with adoptive T cell transfer (ATCT)
Description: Immunogenic TRAMP-C2 cells were s.c. inoculated into WT or Tcrβ^−/− mice. […] Immunogenic TRAMP-C2 cells were s.c. inoculated into WT or Rag1^−/− −×OT-1 mice (no B cells), that harbor CD8^+ T cells specific for chicken ovalbumin which is not expressed by TRAMP-C2 cells. […] All results are means±s.e.m. Mann-Whitney and t tests were used to calculate statistical significance.
For adoptive T cell transfer (ATCT) CD8^+ T cells were isolated from single cell suspensions, prepared from spleens and lymph nodes as described above, using CD8α-specific microbeads and MACS-columns (both Miltenyi Biotec GmbH, Bergisch Gladbach, Germany), and 5×10^6 CD8^+ T cells were transferred intraperitoneally (i.p.; FIG. 14a-j). […] For adoptive splenocytes transfer (ACT), single cell suspensions prepared from spleens were transferred i.p., with one total spleen injected per mouse. Labelling with 5-(and 6-) carboxyfluorescein diacetate succinimidyl ester (CFSE; Molecular Probes, Eugene, Oreg.) was done according to manufacturer's protocol. […] Purity was analyzed on a Beckman Coulter Cyan ADP flow cytometer and was always >98%.
2×10^6 Myc-Cap^11 or 3×10^6 TRAMP-C2^12 cells (purchased from ATCC) were s.c. injected into the right flank. Tumors were measured every 2-3 days using a caliper. Tumor volumes were calculated as width^2×length/2.

[2] = system: tumor-infiltrating B cells and CD8+ T cells; assay: Flow cytometry / Q-RT-PCR of tumor-infiltrating lymphocytes in TRAMP and MC tumors
Description: For lymphocytes isolated from spleen and lymph nodes, standard protocols using filters have been used. Lymphocytes were isolated from human blood using Ficoll-Paque PLUS (GE Healthcare Life Science) according to manufacturer's recommendations. For lymphocyte isolation from tumors (mouse and human), tumors were cut into small pieces and incubated in dissociation solution (RPMI medium supplemented with 5% FBS, collagenase type I (200 U/ml), collagenase type IV (200 U/ml), and DNase I (100 μg/ml) for 30 min at 37° C. After incubation, cell suspensions were passed through a 50 μm cell strainer and washed twice. For large tumors (≥0.7 g), hematopoietic cells were pre-enriched using density gradient centrifugation (Percoll or Ficoll), and red blood cells were lysed (RBC Lysis buffer, multi-species; eBioscience). For blocking of Fc-mediated interactions, mouse cells were pre-incubated with 0.5-1 μg of purified anti-mouse CD16/CD32 (93) per 100 μl and human cells were incubated with FcR blocking reagent (Miltenyi Biotec). Isolated cells were stained with labeled antibodies in PBS with 2% FCS and 2 mM EDTA or cell staining buffer (Biolegend). Dead cells were excluded based on staining with Live/Dead fixable dye (eBioscience). For intracellular cytokine staining, cells were restimulated (Myc-Cap cell lysate, PMA/ionomycin or PMA/ionomycin/LPS, as indicated) in the presence of a protein transport inhibitor cocktail containing Brefeldin A and Monensin (eBioscience), as indicated. For CD107, a staining antibody was added to the culture during the stimulation. After 5 hrs, cells were fixed and permeabilized with BD™ Cytofix/Cytoperm reagent for cytokine staining. BD™ transcription factor buffer was used for Foxp3 and T-bet staining and BD™ Phosflow was used for p-SMAD2/3 and p-STAT staining (BD Biosciences) according to manufacturer's recommendations. After fixation/permeabilization, cells were stained with labeled antibodies of interest. Moreover, Il10 and β-actin mRNA expression were analyzed on single cell level by flow cytometry in combination with CD45, IgA and IL-10 protein staining, using FlowRNA II Assay kit (Affymetrix eBioscience) according to manufacturer's protocols^9. Cells were analyzed on a Beckman Coulter Cyan ADP flow cytometer. Data were analyzed using FlowJo software (Treestar). Immune cell analysis of tumor-free mice of different genetic backgrounds (C57BL/6 and FVB) and different genetic ablations are shown in FIG. 15a-m.
Total RNA was extracted using an RNeasy Plus kit (Qiagen). RNA was reverse transcribed using an IScript kit (Biorad). Q-RT-PCR was performed using Ssofast EvaGreen supermix (Biorad) on a Biorad CFX96 machine. Primer sequences are listed below and generally were obtained from the NIH qPrimerDepot (http://mouseprimerdepot.nci.nih.gov). The relative expression levels of target genes were measured in triplicates and normalized against the level of RPL32 expression. Fold-difference (as relative mRNA expression) was calculated by the comparative CT method (2^(Ct(RPI,32-gene or interest))).

For `O=C1[O][Pt]2([NH][C@@H]3CCCC[C@H]3[NH]2)[O]C1=O` [oxaliplatin], which “PC growth, late treatment” value (TRAMP prostate tumors; B cell-deficient TRAMP, Jh−/− mice) is on record?
The value was “remained oxaliplatin sensitive”.

And the TRAMP mouse survival (TRAMP prostate tumors; LD oxaliplatin weekly, dependent on CTL)?
Its TRAMP mouse survival is “enhanced TRAMP mouse survival”.

What about the “prostate tumor regression 30 days after lymphocyte transfer” value (TRAMP prostate tumors; Rag1−/− mice receiving T and B cells) of the same compound?
Its value is “led to tumor regression”.

And the “prostate tumor regression 30 days after lymphocyte transfer” value (TRAMP prostate tumors; Rag1−/− mice receiving only T cells)?
Its value is “complete tumor regression”.

And the “response of ≥0.7 g tumors to late chemotherapy” value (TRAMP prostate tumors; WT TRAMP mice, 6 mg/kg weekly, late treatment)?
Its value is “largely resistant”.

And the “response of early (≤0.2 g) TRAMP tumors” value (TRAMP prostate tumors; early treatment, regardless of B cell status)?
Its value is “responded”.

And the “IgA production and other immune parameters” value [1]?
Its value is “no effect”.

And the “TRAMP-C2 tumor rejection, oxaliplatin combined with ATCT” value (TRAMP-C2 tumors; B cell-containing Tcrβ−/− mice)?
The value was “no tumor rejection took place”.

And the “TRAMP-C2 tumor growth, ATCT together with oxaliplatin” value (TRAMP-C2 tumors; Rag1−/−, OT-1 mice (no B cells))?
Its value is “tumor growth was inhibited”.

What about the “IL-21 expression in tumors” value ([2]; MC tumors) of the same compound?
Its value is “increased IL-21 expression”.

What about the “Il10 mRNA expression in tumors” value ([2]; MC tumors) of the same compound?
Its value is “increased Il10 mRNA expression”.

What about the “STAT3 phosphorylation in tumoral B cells” value ([2]; MC tumors) of the same compound?
Its value is “enhanced STAT3 phosphorylation”.

And the “proportion of tumoral B cells undergoing TGFβ signaling (p-SMAD2/3, Tgfb1 mRNA)” value ([2]; MC tumors)?
Its value is “increased the proportion of tumoral B cells undergoing TGFβ signaling”.

What about the “abundance of tumor infiltrating CD8+ and CD4+ cells” value ([2]; MC tumors in Jh−/− mice, oxaliplatin versus cisplatin) of the same compound?
The value was “increased the abundance”.

And the “induction of Nos2, Arg1, IL-12p35 and IL-12p40” value ([2]; MC tumors, WT and Jh−/− mice, no differences between them)?
Its value is “induced other immunoregulatory molecules”.

And the “induction of Fas-L and PD-L1 on tumoral B cells” value ([2]; TRAMP and MC tumors)?
Its value is “induced Fas ligand (Fas-L) and PD ligand 1 (PD-L1)”.

And the “CD8+ cell recruitment into tumors” value ([2]; TRAMP and TRAMP, Jh−/− mice)?
The value was “stimulated CD8^+ cell recruitment”.

What about the “abundance of LTα/β-producing B cells” value ([2]; TRAMP tumors) of the same compound?
The value was “barely increased”.

And the “oxaliplatin-induced IgA+ cells expressing both PD-L1 and IL-10” value ([2]; TRAMP tumors)?
The value was “about 40%”.

And the “amount of splenic IgA+ cells” value ([2]; WT mice bearing MC tumors)?
The value was “modestly increased”.

And the “tumoral B cells that were CD19+B220lowCD138+ plasma cells” value ([2]; after 3-4 cycles of oxaliplatin treatment)?
Its value is “at least 40%”.

What about the “plasma cells that expressed IgA” value ([2]; after 3-4 cycles, depending on the tumor model used) of the same compound?
Its value is 40-80%.

What about the “abundance of IgA+ B cells among B220low cells” value ([2]; after additional cycles) of the same compound?
The value was about 80%.

And the “IgA+ B cells expressing both Fas-L and PD-L1” value ([2]; after oxaliplatin)?
The value was “about 50%”.

And the “number of tumoral B220+CD19+ B cells” value ([2]; after oxaliplatin cycles)?
The value was “greatly increased”.

What about the “IgA+CD19+ plasmocytes containing both IL-10 mRNA and protein” value ([2]; after oxaliplatin treatment) of the same compound?
Its value is 50%.

What about the “time at which IgA+ B cells became detectable” value ([2]; after the first oxaliplatin cycle) of the same compound?
The value was 48 h.

— patent US10722523B2, “Chemoimmunotherapy for epithelial cancer” (THE REGENTS OF THE UNIVERSITY OF CALIFORNIA, priority 2015, dated 2020)
